The values below come from patent publication US20250368649A1, “TETRAHYDROPYRIDOPYRIMIDINE PAN-KRAS INHIBITORS” (Mirati Therapeutics, Inc., priority 2022, published 2025).

The structures appear in SMILES notation.

One test concerns the target KRas WT (Homo sapiens, UniProt P01116). As to the kind of experiment: KRas binding assay (TR-FRET displacement), KRas WT. The settings on record: single point, 10 nM compound. (In TR-FRET formats the signal depends on donor and acceptor labels being close together.)
The next test addresses KRas G12A (Homo sapiens, UniProt P01116, G12A). The format is binding. The settings on record: single point, 10 nM compound, read-out: Binding to KRas (% inhibition at 10 nM) G12A.
For another test, the target named is KRas G12C (Homo sapiens, UniProt P01116, G12C). The class given is binding. The settings on record: single point, 10 nM compound, read-out: Binding to KRas (% inhibition at 10 nM) G12C.
A further test addresses KRas G12S (Homo sapiens, UniProt P01116, G12S). The format is binding. The conditions noted are these: single point, 10 nM compound, read-out: Binding to KRas (% inhibition at 10 nM) G12S.
In the next test the target is KRas G13D (Homo sapiens, UniProt P01116, G13D). The class given is binding. The settings on record: single point, 10 nM compound, read-out: Binding to KRas (% inhibition at 10 nM) G13D.
In another test the target is KRas Q61H (Homo sapiens, UniProt P01116, Q61H). As to the kind of experiment: KRas binding assay (TR-FRET displacement), KRas Q61H. The settings on record: single point, 10 nM compound.
Another test deals with MKN1 cells. The test can be described thus: Inhibition of KRas-mediated phosphorylation of ERK (Cisbio HTRF pERK), MKN1 cells. The class given is cell-based. The settings on record: Homo sapiens, MKN-1, 3 hour compound incubation, Cisbio pERK HTRF. In outline:
(§1)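 Cells were seeded on day 1 at 6,000 per well in RPMI containing 10% FBS before compound treatment and phospho-ERK detection.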

Another test has as its system PSN1 cells. The test can be described thus: Inhibition of KRas-mediated phosphorylation of ERK (Cisbio HTRF pERK), PSN1 cells. The class given is cell-based. The conditions noted are these: Homo sapiens, PSN1, 3 h, 3 hour compound incubation, Cisbio pERK HTRF. In outline: as §1
The next test has as its system ASPC1 cells. As to the kind of experiment: Inhibition of KRas-mediated phosphorylation of ERK (Cisbio HTRF pERK), ASPC1 cells. The format is cell-based. The settings on record: Homo sapiens, ASPC1, 3 h, AsPC-1 cells; 3 hr compound incubation; Cisbio pERK HTRF.
The test system of the next test is H727 cells. As to the kind of experiment: Inhibition of KRas-mediated phosphorylation of ERK (Cisbio HTRF pERK), H727 cells. The class given is cell-based. The settings on record: Homo sapiens, NCI-H727, 3 h, 3 hr compound incubation, Cisbio pERK HTRF.
The test system of another test is A549 cells. The test can be described thus: Inhibition of KRas-mediated phosphorylation of ERK (Cisbio HTRF pERK), A549 cells. The format is cell-based. The conditions noted are these: Homo sapiens, A549, 3 h, 3 hr compound incubation, Cisbio pERK HTRF.
Another test deals with H460 cells. The test can be described thus: Inhibition of KRas-mediated phosphorylation of ERK (Cisbio HTRF pERK), H460 cells. The class given is cell-based. The settings on record: Homo sapiens, NCI-H460, 3 h, 3 hr compound incubation, Cisbio pERK HTRF.
A further test relates to HCT116 cells. The test can be described thus: Inhibition of KRas-mediated phosphorylation of ERK (Cisbio HTRF pERK), HCT116 cells. The class given is cell-based. The conditions noted are these: Homo sapiens, HCT-116, 3 h, 3 hr compound incubation, Cisbio pERK HTRF.
In another test the target is KRas G12D (Homo sapiens, UniProt P01116, G12D). The test can be described thus: biochemical. The conditions noted are these: Binding to KRas (IC50 nM) G12D, TR-FRET displacement, KRas G12D.
Another test addresses KRas G12R (Homo sapiens, UniProt P01116, G12R). The test can be described thus: biochemical. The conditions noted are these: Binding to KRas (IC50 nM) G12R, TR-FRET displacement, KRas G12R.
A further test has as its target KRas G12V (Homo sapiens, UniProt P01116, G12V). As to the kind of experiment: biochemical. The settings on record: Binding to KRas (IC50 nM) G12V, TR-FRET displacement, KRas G12V.

By inhibition is commonly meant the relative decrease from the control value, in per cent. Broadly, the IC50 is the concentration that gives 50% inhibition.

KRas G12R, sequence (P01116 1-169 isoform P01116-2 G12R): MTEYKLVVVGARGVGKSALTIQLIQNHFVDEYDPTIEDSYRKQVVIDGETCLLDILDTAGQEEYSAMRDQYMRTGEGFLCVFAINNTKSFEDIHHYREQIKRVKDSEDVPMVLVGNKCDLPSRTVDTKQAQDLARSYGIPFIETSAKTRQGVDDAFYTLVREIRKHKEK
KRas G12C, sequence (P01116 1-169 isoform P01116-2 G12C): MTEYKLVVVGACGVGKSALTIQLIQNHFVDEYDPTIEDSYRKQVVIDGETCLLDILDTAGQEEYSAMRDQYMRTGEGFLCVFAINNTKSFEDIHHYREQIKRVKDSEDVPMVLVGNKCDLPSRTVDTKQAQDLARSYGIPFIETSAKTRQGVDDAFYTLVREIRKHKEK
KRas G12S, sequence (P01116 1-169 isoform P01116-2 G12S): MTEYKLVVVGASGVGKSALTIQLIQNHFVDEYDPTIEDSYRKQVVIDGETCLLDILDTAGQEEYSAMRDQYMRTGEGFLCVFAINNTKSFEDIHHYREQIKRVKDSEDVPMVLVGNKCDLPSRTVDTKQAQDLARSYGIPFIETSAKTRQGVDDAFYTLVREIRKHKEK
KRas Q61H, sequence (P01116 1-169 isoform P01116-2 Q61H): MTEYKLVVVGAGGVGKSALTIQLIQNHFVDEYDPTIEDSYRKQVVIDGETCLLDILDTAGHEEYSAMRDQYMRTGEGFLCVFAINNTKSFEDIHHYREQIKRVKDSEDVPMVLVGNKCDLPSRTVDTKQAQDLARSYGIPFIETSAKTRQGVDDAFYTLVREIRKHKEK
KRas G13D, sequence (P01116 1-169 isoform P01116-2 G13D): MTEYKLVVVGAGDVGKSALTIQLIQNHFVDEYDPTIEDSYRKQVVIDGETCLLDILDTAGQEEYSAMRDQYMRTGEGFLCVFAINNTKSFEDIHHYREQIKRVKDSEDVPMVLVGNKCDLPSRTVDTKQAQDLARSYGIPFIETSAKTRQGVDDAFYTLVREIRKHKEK
KRas G12A, sequence (P01116 1-169 isoform P01116-2 G12A): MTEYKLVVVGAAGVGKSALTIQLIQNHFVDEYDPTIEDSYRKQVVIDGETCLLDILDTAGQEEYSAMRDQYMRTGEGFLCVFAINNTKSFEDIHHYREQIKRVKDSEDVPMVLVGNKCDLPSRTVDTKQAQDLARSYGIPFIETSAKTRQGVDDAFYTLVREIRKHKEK
KRas G12D, sequence (P01116 1-169 isoform P01116-2 G12D): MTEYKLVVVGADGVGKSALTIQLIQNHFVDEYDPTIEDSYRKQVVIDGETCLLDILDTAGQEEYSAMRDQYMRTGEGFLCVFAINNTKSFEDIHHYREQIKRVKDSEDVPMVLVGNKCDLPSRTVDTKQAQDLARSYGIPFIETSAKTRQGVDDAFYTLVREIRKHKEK
KRas WT, sequence (P01116 1-169 isoform P01116-2): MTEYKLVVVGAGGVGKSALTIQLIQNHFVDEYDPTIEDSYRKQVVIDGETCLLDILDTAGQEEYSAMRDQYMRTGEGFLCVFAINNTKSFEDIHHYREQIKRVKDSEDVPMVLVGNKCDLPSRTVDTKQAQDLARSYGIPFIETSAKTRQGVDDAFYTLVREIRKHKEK
KRas G12V, sequence (P01116 1-169 isoform P01116-2 G12V): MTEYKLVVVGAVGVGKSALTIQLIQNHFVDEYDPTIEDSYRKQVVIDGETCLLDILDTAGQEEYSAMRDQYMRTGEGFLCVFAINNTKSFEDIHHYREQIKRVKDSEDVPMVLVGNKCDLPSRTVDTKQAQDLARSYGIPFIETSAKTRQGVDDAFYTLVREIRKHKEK

Consider `CCc1c(F)ccc2cc(O)cc(N3CCc4c(nc(OC[C@@]56CCCN5C[C@H](F)C6)nc4N4CCCn5nc6c(c5C4)CCCNC6=O)C3)c12` [Example 415, 2-(7-(8-ethyl-7-fluoro-3-hydroxynaphthalen-1-yl)-2-(((2R,7aS)-2-fluorohexahydro-1H-pyrrolizin-7a-yl)methoxy)-5,6,7,8-tetrahydropyrido[3,4-d]pyrimidin-4-yl)-2,3,4,5,9,10,11,12-octahydroazepino[3′,4′:3,4]pyrazolo[1,5-a][1,4]diazepin-8(1H)-one], for which the inhibition at 0.01 µM on KRas WT came to 99%; at KRas G12A, 100%; at KRas G12C, 100%; at KRas G12S it was 100%; at KRas G13D it was 99%; at KRas Q61H, 100%. Besides, the IC50 in the test with MKN1 cells was found to be 16 nM; with PSN1 cells it was 1980 nM; in the test with ASPC1 cells, 26 nM; with H727 cells, 28 nM; with A549 cells it was 134 nM; in the test with H460 cells it was 171 nM. The IC50 is 504 nM with HCT116 cells, below 2 nM at KRas G12D, below 2 nM at KRas G12R and below 2 nM on KRas G12V.

In the case of `CCc1c(F)ccc2cc(O)cc(N3CCc4c(nc(OC[C@@]56CCCN5C[C@H](F)C6)nc4N4CCCC5(CC(=O)NC5=O)C4)C3)c12` (stereo partly drawn) [Example 419, 7-(7-(8-ethyl-7-fluoro-3-hydroxynaphthalen-1-yl)-2-(((2R,7aS)-2-fluorohexahydro-1H-pyrrolizin-7a-yl)methoxy)-5,6,7,8-tetrahydropyrido[3,4-d]pyrimidin-4-yl)-2,7-diazaspiro[4.5]decane-1,3-dione], the inhibition at 0.01 µM worked out at 62% at KRas WT; 54% on KRas G12A; 83% on KRas G12C; 72% at KRas G12S; 82% on KRas G13D; 90% at KRas Q61H. The IC50 in the test on MKN1 cells turned out to be 6 nM; in the test on PSN1 cells, 194 nM; with ASPC1 cells, 40 nM; with H727 cells it was 37 nM; with A549 cells, 9 nM; in the test on H460 cells, 20 nM. Moreover, the IC50 in the test on HCT116 cells is 38 nM; at KRas G12D, below 2 nM; at KRas G12R, below 2 nM; at KRas G12V it was below 2 nM.

Turning to `CCc1c(F)ccc2cc(O)cc(N3CCc4c(nc(OC[C@@]56CCCN5C[C@H](F)C6)nc4N4CCCOCC4)C3)c12` [Example 420, 5-ethyl-6-fluoro-4-(2-(((2R,7aS)-2-fluorohexahydro-1H-pyrrolizin-7a-yl)methoxy)-4-(1,4-oxazepan-4-yl)-5,6-dihydropyrido[3,4-d]pyrimidin-7(8H)-yl)naphthalen-2-ol], the inhibition at 0.01 µM at KRas WT was 95%; on KRas G12A, 96%; at KRas G12C, 98%; on KRas G12S, 97%; on KRas G13D, 95%; on KRas Q61H, 97%. Also, the IC50 amounted to 5.8 nM in the test on MKN1 cells; 2740 nM with PSN1 cells; 66 nM in the test with ASPC1 cells; 38 nM in the test with H727 cells; 24 nM in the test on A549 cells; 38 nM with H460 cells. For the same compound, the IC50 is 143 nM in the test with HCT116 cells, below 2 nM on KRas G12D, below 2 nM at KRas G12R and below 2 nM at KRas G12V.
